Test results reported in patent publication US20260285853A1, “COMPOUNDS AND METHODS FOR MODULATING SPLICING” (REMIX THERAPEUTICS INC., priority 2023, published 2026).

How the values were obtained:
Format in all cases: cell-based
MYB mRNA [1] = test: Splicing RT-qPCR assay, canonical (CJ) and alternative (AJ) junction mRNA, K562 cells; conditions: Homo sapiens, K562.3 cells, 24 hours; for AC50: read-out: MYB AJ (AC50, increase in AJ mRNA); for IC50: read-out: MYB CJ (IC50, decrease in CJ mRNA)
Method: (§1) Compounds described herein were used to modulate RNA transcript abundance in cells. The expression of a target mRNA was measured by detecting the formation of an exon-exon junction in the canonical transcript (CJ). A compound mediated exon-inclusion event was detected by observing an increase in formation of a new junction with an alternative exon (AJ). Real-time qPCR assays were used to detect these splicing switches and interrogate the potency of various compounds towards different target genes. A high-throughput real time quantitative PCR (RT-qPCR) assay was developed to measure these two isoforms of the mRNA (CJ and AJ) for exemplary genes, such as HTT, SMN2, and MYB, together with a control housekeeping gene, GAPDH or GUSB or PPIA, used for normalization. Briefly, the A673 or K562 cell line was treated with various compounds described herein (e.g., compounds of Formula (I)). After treatment, the levels of the HTT, MYB, or SMN2 mRNA targets were determined from each sample of cell lysate by cDNA synthesis followed by qPCR.
(§2) • Cells-to-CT 1-step kit: ThermoFisher A25602, Cells-to-CT lysis reagent: ThermoFisher 4391851C, TaqMan™ Fast Virus 1-Step Master Mix: ThermoFisher 4444436 • GAPDH: VIC-PL, ThermoFisher 4326317E (Assay: Hs99999905_m1)—used for K562/suspension cell lines • GUSB: VIC-PL, ThermoFisher 4326320E (Assay: Hs99999908_m1)—used for K562/suspension cell lines • PPIA: VIC-PL, ThermoFisher 4326316E (Assay: Hs99999904_m1)—used for A673/adherent cell lines
(§3) The K562 cell line was cultured in IMDM with 10% FBS. For K562, cells were diluted with full growth media and plated in either a 96-well plate (50,000 cells in 50 uL media per well) or a 384-well plate (8,000-40,000 cells in 45 uL media per well). An 11-point 3-fold serial dilution of the compounds were made in DMSO then diluted in media in an intermediate plate. Compound was transferred from the intermediate plate to the cell plate with the top dose at a final concentration of 10 uM in the well. Final DMSO concentration was kept at or below 0.25%. Final volume was 100 uL for 96-well plate and 50 uL for 384-well plate. The cell plate was then placed in an incubator at 37° C. with 5% CO2 for 24 hours.
(§4) The cells were then gently washed with 50 uL-100 uL cold PBS before proceeding to addition of lysis buffer. 30 uL-50 uL of room temperature lysis buffer with DNAse I (and optionally RNAsin) was added to each well. Cells were shaken/mixed thoroughly at room temperature for 5-10 minutes for lysis to take place and then 3 uL-5 uL of room temperature stop solution was added and wells were shaken/mixed again. After 2-5 minutes, the cell lysate plate was transferred to ice for RT-qPCR reaction setup. The lysates could also be frozen at −80° C. for later use.
(§5) In some cases, a direct lysis buffer was used. An appropriate volume of 3× lysis buffer (10 mM Tris, 150 mM NaCl, 1.5%-2.5% Igepal and 0.1-1 U/uL RNAsin, pH 7.4) was directly added to either K562 or A673 cells in media and mixed by pipetting 3 times. The plates were then incubated at room temperature with shaking/rocking for 20-50 minutes to allow for lysis to take place. After this time, the cell lysate plate was transferred to ice to set up for the RT-qPCR reactions. The lysates could also be frozen at −80° C. for later use.
(§6) To set up 10 uL RT-qPCR reactions, cell lysates were transferred to 384-well qPCR plates containing the master mix according to the table below. The plates were sealed, gently vortexed, and spun down before the run. The volumes were adjusted accordingly in some instances where the reaction was carried in 20 uL. The table below summarizes the components of the RT-qPCR reactions:
(§7) The RT-qPCR reaction was performed using a QuantStudio (ThermoFisher) under the following fast cycling conditions. All samples and standards were analyzed at least in duplicate. In some instances, bulk room temperature (RT) step of 5-10 minutes was completed for all plates before proceeding with qPCR. […]

HTT mRNA [2] = test: as above; conditions: Homo sapiens, K562.3 cells, 24 hours; for AC50: read-out: HTT AJ (AC50, increase in AJ mRNA); for IC50: read-out: HTT CJ (IC50, decrease in CJ mRNA)
Method: as §1, §2, §3, §4, §5, §6, §7

MYB mRNA [3] = test: Splicing RT-qPCR assay (THP), Table 2A; conditions: Table 2A (THP); for AC50: AJ mRNA increase, read-out: MYB AJ (increase in alternative junction mRNA, AC50); for IC50: CJ mRNA decrease, read-out: MYB CJ (decrease in canonical junction mRNA, IC50)
SMN2 mRNA = test: Gene panel canonical junction qPCR assay, decrease in CJ mRNA, Table 3; conditions: decrease in canonical junction (CJ) mRNA, gene panel qPCR, Table 3
How it was run: (§8)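 A673 (DMEM, 10% FBS, 15,000 cells/well) or K562 (IMDM, 10% FBS) cells treated 24 h at 37 °C with 11-point 3-fold dilutions, top 10 uM, DMSO ≤0.25%. Canonical exon-exon junction mRNA measured by RT-qPCR, normalized to GAPDH, GUSB or PPIA and DMSO (ΔΔCt); IC50 from 4-parameter logistic fit.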

MYB mRNA [4] = test: as above; conditions: decrease in canonical junction (CJ) mRNA, gene panel qPCR, Table 3
How it was run: as §8

HTT mRNA [5] = test: as above; conditions: decrease in canonical junction (CJ) mRNA, gene panel qPCR, Table 3
How it was run: as §8

[6] = test system: SH-SY5Y (human neuroblastoma) cells; test: Cell viability, Cell Titer Glo 2.0 assay; conditions: read-out: Viability SHSY5Y.3 GI50
How it was run: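 Toxicity screen in SH-SY5Y cells. Compounds were serially diluted in DMSO and then in medium, giving 0.1% DMSO final. Viability was read with CellTiter-Glo 2.0 after 72 h at 37 °C, 5% CO2, against medium-only blank wells.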

Q: For `CN[C@@H]1CCN(c2ccc(C(=O)Nc3cc(F)c4nn(C)cc4c3)c3nn(C)cc23)C1` [Compound 140, N-(7-fluoro-2-methyl-indazol-5-yl)-2-methyl-4-[(3R)-3-(methylamino)pyrrolidin-1-yl]indazole-7-carboxamide], which AC50 (MYB mRNA [1]) is on record?
A: The AC50 was 100 to 1000 nM.

Q: What about the IC50 (MYB mRNA [1]) of the same molecule?
A: The IC50 was 100 to 1000 nM.

Q: What about the AC50 (HTT mRNA [2]) of the same molecule?
A: Its AC50 is 1000 to 10000 nM.

Q: And the IC50 (HTT mRNA [2])?
A: The IC50 was 1000 to 10000 nM.

Q: What about the AC50 (MYB mRNA [3]) of the same molecule?
A: Its AC50 is 100 to 1000 nM.

Q: And the IC50 (MYB mRNA [3])?
A: Its IC50 is 100 to 1000 nM.

Q: And the IC50 (SMN2 mRNA)?
A: The IC50 was < 100 nM.

Q: And the IC50 (MYB mRNA [4])?
A: Its IC50 is 100 to 1000 nM.

Q: What about the IC50 (HTT mRNA [5]) of the same molecule?
A: The IC50 was 1000 to 10000 nM.

Q: And the GI50 [6]?
A: Its GI50 is 1000 to 10000 nM.

Q: What does the source list for `CCN[C@H]1CCN(c2cc(O)c(C(=O)Nc3cc(F)c4nc(C)cn4c3)c3nn(C)cc23)C1` [Compound 143, 4-[(3S)-3-(ethylamino)pyrrolidin-1-yl]-N-(8-fluoro-2-methyl-imidazo[1,2-a]pyridin-6-yl)-6-hydroxy-2-methyl-indazole-7-carboxamide]?
A: AC50 (MYB mRNA [1]): < 100 nM; IC50 (MYB mRNA [1]): < 100 nM; AC50 (HTT mRNA [2]): 1000 to 10000 nM; IC50 (HTT mRNA [2]): 1000 to 10000 nM; AC50 (MYB mRNA [3]): < 100 nM; IC50 (MYB mRNA [3]): < 100 nM; IC50 (SMN2 mRNA): < 100 nM; IC50 (MYB mRNA [4]): < 100 nM; IC50 (HTT mRNA [5]): 1000 to 10000 nM; GI50 [6]: 100 to 1000 nM

Q: For `CCN[C@H]1CCN(c2cc(OC)c(C(=O)Nc3cc(F)c4nc(C)cn4c3)c3nn(C)cc23)C1` [Compound 146], which AC50 (MYB mRNA [1]) is on record?
A: Its AC50 is > 10000 nM.

Q: And the IC50 (MYB mRNA [1])?
A: Its IC50 is > 10000 nM.

Q: What about the AC50 (HTT mRNA [2]) of the same molecule?
A: Its AC50 is > 10000 nM.

Q: And the IC50 (HTT mRNA [2])?
A: The IC50 was > 10000 nM.

Q: And the AC50 (MYB mRNA [3])?
A: The AC50 was > 10000 nM.

Q: What about the IC50 (MYB mRNA [3]) of the same molecule?
A: The IC50 was > 10000 nM.

Q: And the IC50 (SMN2 mRNA)?
A: Its IC50 is 1000 to 10000 nM.

Q: What about the IC50 (MYB mRNA [4]) of the same molecule?
A: The IC50 was > 10000 nM.

Q: And the IC50 (HTT mRNA [5])?
A: Its IC50 is > 10000 nM.

Q: And the GI50 [6]?
A: Its GI50 is > 10000 nM.

Q: What does the source list for `Cc1cn2cc(NC(=O)c3ccc(N4CCC5NCCC5C4)c4cn(C)nc34)cc(F)c2n1` (centres unmarked) [Compound 169, N-(8-fluoro-2-methyl-imidazo[1,2-a]-pyridin-6-yl)-2-methyl-4-(octahydro-pyrrolo[3,2-c]pyridin-5-yl)indazole-7-carboxamide 2,2,2-trifluoroacetate]?
A: AC50 (MYB mRNA [1]): 100 to 1000 nM; IC50 (MYB mRNA [1]): 100 to 1000 nM; AC50 (HTT mRNA [2]): 1000 to 10000 nM; IC50 (HTT mRNA [2]): 1000 to 10000 nM; AC50 (MYB mRNA [3]): < 100 nM; IC50 (MYB mRNA [3]): 100 to 1000 nM; IC50 (SMN2 mRNA): < 100 nM; IC50 (MYB mRNA [4]): 100 to 1000 nM; IC50 (HTT mRNA [5]): 1000 to 10000 nM; GI50 [6]: 1000 to 10000 nM

Q: `Cc1cn2cc(NC(=O)c3c(F)cc(N4CCNCC4)c4c3CN(C)C4)cc(F)c2n1` [Compound 230, 5-fluoro-N-(8-fluoro-2-methyl-imidazo[1,2-a]pyridin-6-yl)-2-methyl-7-piperazin-1-yl-isoindoline-4-carboxamide] was tested. Which AC50 (MYB mRNA [1]) did it give?
A: Its AC50 is > 10000 nM.

Q: What about the IC50 (MYB mRNA [1]) of the same molecule?
A: The IC50 was > 10000 nM.

Q: And the AC50 (HTT mRNA [2])?
A: The AC50 was > 10000 nM.

Q: And the IC50 (HTT mRNA [2])?
A: The IC50 was > 10000 nM.

Q: What about the IC50 (SMN2 mRNA) of the same molecule?
A: Its IC50 is 1000 to 10000 nM.

Q: And the IC50 (MYB mRNA [4])?
A: The IC50 was > 10000 nM.

Q: What about the IC50 (HTT mRNA [5]) of the same molecule?
A: Its IC50 is > 10000 nM.

Q: And the GI50 [6]?
A: The GI50 was > 10000 nM.

Q: Which AC50 (MYB mRNA [1]) does the source give for `CCNC1CCN(c2ccc(C(=O)Nc3cc(F)c4nc(C)cn4c3)c3[nH]ncc23)CC1` [Compound 266, 4-[4-(ethylamino)piperidin-1-yl]-N-(8-fluoro-2-methyl-imidazo[1,2-a]pyridin-6-yl)-1H-indazole-7-carboxamide] here?
A: Its AC50 is 100 to 1000 nM.

Q: And the IC50 (MYB mRNA [1])?
A: The IC50 was 100 to 1000 nM.

Q: What about the AC50 (HTT mRNA [2]) of the same molecule?
A: The AC50 was > 10000 nM.

Q: And the IC50 (HTT mRNA [2])?
A: The IC50 was > 10000 nM.

Q: And the IC50 (SMN2 mRNA)?
A: The IC50 was < 100 nM.

Q: And the IC50 (MYB mRNA [4])?
A: Its IC50 is 100 to 1000 nM.

Q: And the IC50 (HTT mRNA [5])?
A: The IC50 was > 10000 nM.

Q: And the GI50 [6]?
A: The GI50 was 1000 to 10000 nM.
